# Experimental data taken from patent publication US20060111342A1, “Insecticidal tricyclic derivatives” (priority 2002, published 2006).
# Experiments:
# [1] = system: cotton aphid (Aphis gossypii); assay: Cotton aphid mortality on sprayed cotton plants, assessed after 24 hours (Table 2); type: in vivo; conditions: read-out: Mortality of Cotton Aphid On Cotton Plants: More Than 75% Mortality (A)
# Experimental: (§1) The compounds of formula I useful in the present invention were tested for insecticidal activity by observing mortality in a population of cotton aphid (Aphis gossypii) on treated cotton plants caused by a test compound, when compared to like populations of cotton aphid on untreated plants. These tests were conducted in the following manner:
# For each rate of application of test compound, two seven-to-ten days old cotton seedlings (Gossypium hirsutium) grown in 7.6 cm diameter pots were selected for the test. Each test plant was infested with about 120 adult cotton aphids by placing onto each test plant cuttings of leaves from cotton plants grown in a cotton aphid colony. Once infested, the test plants were maintained for up to about 12 hours to allow complete translocation of the aphids onto the test plant. A solution comprising 1000 part per million (ppm) of each test compound was prepared by dissolving 10 milligrams of the test compound in 1 mL of acetone. Each solution was then diluted with 9 mL of a solution of 0.03 mL of polyoxyethylene(10) isooctylphenyl ether in 100 mL of water. […] After this time, each plant was assessed for percent mortality caused by the test compound when compared to the population of aphids that was infested onto the test plants prior to treatment with test compound. […]
# [2] = system: cotton aphid (Aphis gossypii); assay: Cotton aphid test in the same manner, more definitive percent mortality at selected rates and exposure times (Table 3); type: in vivo
# Experimental: as §1
# For each rate of application of test compound, two seven-to-ten days old cotton seedlings (Gossypium hirsutium) grown in 7.6 cm diameter pots were selected for the test. Each test plant was infested with about 120 adult cotton aphids by placing onto each test plant cuttings of leaves from cotton plants grown in a cotton aphid colony. Once infested, the test plants were maintained for up to about 12 hours to allow complete translocation of the aphids onto the test plant. A solution comprising 1000 part per million (ppm) of each test compound was prepared by dissolving 10 milligrams of the test compound in 1 mL of acetone. Each solution was then diluted with 9 mL of a solution of 0.03 mL of polyoxyethylene(10) isooctylphenyl ether in 100 mL of water. About 2.5 mL of solution of each test compound was needed to spray each replicate of test plant (5 mL total for each test compound). If needed, the solution of 1000 ppm of test compound was serially diluted with a solution of 10% acetone and 300 ppm of polyoxyethylene(10) isooctylphenyl ether in water to provide solutions of each test compound for lower rates of application, for example, 300 ppm, 100 ppm, 30 ppm, or 10 ppm. Each replicate of test plant was sprayed with the solutions of test compound until run-off on both the upper and lower surfaces of the leaves. All the test plants were sprayed using a DeVilbus Atomizer Model 152 (Sunrise Medical, Carlsbad, Calif.) at a pressure of about 0.63-0.74 kilogram per square centimeter from a distance of about 30.5 centimeters from the test plants. For comparison purposes, a solution of a standard, such as amitraz or demethylchlordimeform (DCDM), prepared in a manner analogous to that set forth above, as well as a solution of 10% acetone and 300 ppm of polyoxyethylene(10) isooctylphenyl ether in water containing no test compound were also sprayed onto test plants. Upon completion of spraying the solutions of test compound, the solution of standard, and the solution containing no test compound, the plants were allowed to dry. […] After this time, each plant was assessed for percent mortality caused by the test compound when compared to the population of aphids that was infested onto the test plants prior to treatment with test compound. […] If there was 75% mortality or greater of the cotton aphid, a test compound was designated as being more insecticidally active (A).
# In a test conducted in the same manner as set forth above, certain compounds of formula I were tested to determine a more definitive percent mortality of cotton aphid.
# tobacco hornworm = conditions: in vivo; cited from earlier work
compound,measurement,setting,value
"CN1CCC(=C2c3ccccc3Oc3ccccc32)CC1 [Compound 8, 9-(1-methyl-4-piperidylidene)xanthene]",mortality at 100 ppm,[1],> 75%
same,mortality at 100 ppm,"[2]; Aphis gossypii, 96 h, read-out: Percent Mortality of Cotton Aphid on Cotton Plants",88%
CSc1ccc2c(c1)C(N1CCN(C)CC1)Cc1cc(F)ccc1S2 (centres unmarked) [Compound 122],Percent Mortality of Cotton Aphid on Cotton Plants,"[2]; 100 ppm, 72 hours exposure",88%
CSc1ccc2c(c1)C(N1CCN(C)CC1)Cc1ccc(F)cc1S2 (centres unmarked) [Compound 123],Percent Mortality of Cotton Aphid on Cotton Plants,"[2]; 100 ppm, 72 hours exposure",96%
CCSc1ccc2c(c1)C(N1CCN(C)CC1)Cc1ccc(F)cc1S2 (centres unmarked) [Compound 124],Percent Mortality of Cotton Aphid on Cotton Plants,"[2]; 100 ppm, 72 hours exposure",95%
CN1CCN(C2Cc3ccc(F)cc3Sc3ccc(C(F)(F)F)cc32)CC1.O=C(O)/C=C\C(=O)O.O=C(O)/C=C\C(=O)O (centres unmarked) [Compound 125],Percent Mortality of Cotton Aphid on Cotton Plants,"[2]; 100 ppm, 72 hours exposure",90%
CN1CCN(C2Cc3ccc(F)cc3Sc3ccc(OC(F)(F)F)cc32)CC1 (centres unmarked) [Compound 126],Percent Mortality of Cotton Aphid on Cotton Plants,"[2]; 100 ppm, 168 hours exposure",100%
CC(C)c1ccc2c(c1)C(N1CCN(C)CC1)Cc1ccc(F)cc1S2 (centres unmarked) [Compound 127],Percent Mortality of Cotton Aphid on Cotton Plants,"[2]; 1000 ppm, 168 hours exposure",100%
CC(C)c1ccc2c(c1)C(N1CCN(C)CC1)Cc1ccc(F)cc1S2.O=C(O)/C=C\C(=O)O (centres unmarked) [Compound 128],Percent Mortality of Cotton Aphid on Cotton Plants,"[2]; 100 ppm, 72 hours exposure",95%
CSc1ccc2c(c1)C(N1CCN(Cc3ccncc3)CC1)Cc1ccccc1S2 (centres unmarked) [Compound 173],Percent Mortality of Cotton Aphid on Cotton Plants,"[2]; 1000 ppm, 96 hours exposure",82%
CSc1ccc2c(c1)C(N1CCCN(C)CC1)Cc1ccccc1S2 (centres unmarked) [Compound 183],Percent Mortality of Cotton Aphid on Cotton Plants,"[2]; 1000 ppm, 168 hours exposure",100%
CN1CCCN(C2Cc3ccccc3Sc3ccc(OC(F)(F)F)cc32)CC1 (centres unmarked) [Compound 185],Percent Mortality of Cotton Aphid on Cotton Plants,"[2]; 1000 ppm, 168 hours exposure",100%
CN1CCCN(C2Cc3ccccc3Oc3ccc(OC(F)(F)F)cc32)CC1 (centres unmarked) [Compound 186],Percent Mortality of Cotton Aphid on Cotton Plants,"[2]; 100 ppm, 168 hours exposure",100%
CN1CCN(C2=Nc3ccccc3Sc3ccc(Cl)cc32)CC1 [Compound 189],Percent Mortality of Cotton Aphid on Cotton Plants,"[2]; 1000 ppm, 168 hours exposure",55%
CN1CCN(C2=Nc3ccccc3Sc3ccc(OC(F)(F)F)cc32)CC1 [Compound 194],Percent Mortality of Cotton Aphid on Cotton Plants,"[2]; 100 ppm, 168 hours exposure",51%
COc1ccc2c(c1)N(CCCN(C)C)c1ccccc1S2 [Compound 205],Percent Mortality of Cotton Aphid on Cotton Plants,"[2]; 500 ppm, 72 hours exposure",40%
CN1CCN(CCCN2c3ccccc3Sc3ccc(C(F)(F)F)cc32)CC1.Cl.Cl [Compound 207],Percent Mortality of Cotton Aphid on Cotton Plants,"[2]; 1000 ppm, 72 hours exposure",25%
Cl.Cl.OCCN1CCN(CCCN2c3ccccc3Sc3ccc(C(F)(F)F)cc32)CC1 [Compound 208],Percent Mortality of Cotton Aphid on Cotton Plants,"[2]; 500 ppm, 72 hours exposure",43%
"CNCCCN1c2ccccc2CCc2ccccc21 [Desipramine, desipramine]",anti-feeding activity against tobacco hornworm,tobacco hornworm,anti-feeding activity
CN(C)CCC=C1c2ccccc2CCc2ccccc21 [amitriptyline],anti-feeding activity against tobacco hornworm,tobacco hornworm,anti-feeding activity
